In general, IC50 refers to the midpoint of a concentration-inhibition curve. The low end stands for inhibition by little substance, the high end for a need for much substance. The term MIC denotes the least concentration at which growth counts as inhibited.

Values after ≈ are worked out from the molar mass of the structure shown. Peptide text beside a SMILES is read from it. * marks the point of attachment. Bz = O=C(c1ccccc1)*

The values below come from publication PMC7036753, “Lipidated Analogs of the LL-37-Derived Peptide Fragment KR12—Structural Analysis, Surface-Active Properties and Antimicrobial Activity” (International Journal of Molecular Sciences, 2020).

The subject of series [1] is human keratinocytes (HaCaT). In kind it is cell-based. To be noted: HaCaT, MTT, 24 h.
In series [2] the test system is human red blood cells (hRBCs). Description: Hemolysis assay. Format: cell-based. To be noted: concentration range 0.5–256 μg/mL. As to the method:
Then the stock RBCs solution was added up to a final volume of 100 μL with a 4% concentration of erythrocytes (v/v). The control wells for 0 and 100% hemolysis were also prepared. They consisted of RBCs suspended in PBS and 1% of Triton-X 100, respectively.

Series [3] relates to S. aureus ATCC 33591 (MRSA) biofilm. Format: cell-based, Staphylococcus aureus. To be noted: S. aureus ATCC 33591 biofilm, 24 h.
Series [4] deals with S. aureus ATCC 9144 biofilm. In kind it is cell-based, Staphylococcus aureus. The following applies: S. aureus ATCC 9144 biofilm, 24 h.
Series [5] concerns P. aeruginosa ATCC 9027. Format: cell-based, Pseudomonas aeruginosa. The following applies: P. aeruginosa ATCC 9027; Mueller-Hinton Broth, 18 h. In a few lines:
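Following CLSI guidance, compounds (0.5–256 µg/mL) are incubated with bacteria (0.5 × 10^5 CFU/mL, Mueller–Hinton broth) for 18 h at 37 °C. Each MIC reflects complete visible growth inhibition, measured in triplicate with growth and sterility controls.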

Turning to `CC[C@H](C)[C@H](NC(=O)[C@H](CCCNC(=N)N)NC(=O)[C@H](CCC(N)=O)NC(=O)[C@@H](NC(=O)[C@@H](NC(=O)[C@H](CCCNC(=N)N)NC(=O)[C@H](CCCCN)NC(=O)c1ccccc1)[C@@H](C)CC)C(C)C)C(=O)N[C@@H](CCCCN)C(=O)N[C@@H](CC(=O)O)C(=O)N[C@@H](Cc1ccccc1)C(=O)N[C@@H](CC(C)C)C(=O)N[C@@H](CCCNC(=N)N)C(N)=O` [VIII, Benzoic acid-KR12-NH2] (Bz-KRIVQRIKDFLR-NH2), in series [1], the IC50 is listed as 40.50 µg/mL (≈ 24.2 µM). Further, the “hemolysis of hRBCs” value in series [2] was “did not cause hemolysis”. The MBEC in series [3] turned out to be 32 µg/mL; in series [4], 16 µg/mL. The minimum inhibitory concentration (MIC) in series [5] was determined as 8 µg/mL (≈ 4.78 µM).
